According to patent US8981112B2, “Inhibitors of β-secretase” (Boehringer Ingelheim International GmbH, priority 2012, dated 2015):

Columns and labels:
[1] = test system: production of Abeta1-x peptides in H4 neuroglioma cell line stably expressing human APP; test: H4-APPwt Cell-Based Assay (Assay 2), Abeta1-x production; conditions: H4 neuroglioma cells expressing human APP, Abeta1-x; read-out: H4-APPwt cell IC50 nM (assay 2)
Procedure: H4-APPwt Cell-Based Assay (Assay 2)
Cellular potency of the compounds of the invention was assessed in an assay monitoring production of Abeta1-x peptides in the H4 neuroglioma cell line (ATCC, Cat. #HTB-148) stably expressing human APP, using an immunoassay such as AlphaLISA (PerkinElmer, Cat.# AL288). Tested compounds were dissolved in DMSO and pre-diluted in the culture medium (DMEM containing 10% FBS and 1% penicillin/streptomycin) to achieve twice the final concentration of the compounds in the assay. Equal volumes of the 2× solutions of the tested compounds and cell suspension were added to a 96-well culture plate, so that each well contained ˜10,000 cells in a final volume of 200 μl. Final concentration of DMSO in the assay was 0.2%. The plates were incubated for 5 hrs at 37° C., 5% CO2 to allow cells to attach to the bottom of the wells in the presence of the tested compounds. Then the media was removed and replaced with fresh media containing tested compounds at the same final concentration. The plates were incubated for 18 hrs at 37° C., 5% CO2. Concentrations of Ab1-x were determined using AlphaLISA immunoassay (PerkinElmer, Cat.# AL288) following manufacturer's protocol. Concentrations of Abeta1-x in the wells containing either DMSO or 10 μM beta-secretase inhibitor (BACE inhibitor IV, EMD Bioscience, Cat. #565788) were used as uninhibited and background controls, correspondingly, for calculating percent inhibition values for each well with the tested compounds.

[2] = In Vitro Phospholipidosis Assay (Assay 4), Nile red staining; format: cell-based; conditions: human, first effect concentration, U937 cells, read-out: Phospholipidosis FEC IC50 μM (assay 4)
Procedure: In Vitro Phospholipidosis Assay (Assay 4)
The phospholipidogenic potential of test compounds was assayed using the human hematopoetic U937 cell line. The test principle was to analyze the phospholipid content by staining the cells with the fluorescent dye Nile red.
U937 cells were seeded into cell culture plates at 0.5×10^6 cells/mL in RPMI medium containing 10% FBS, 1% DMSO, and 0.005% gentamicin. The cells were then cultivated with or without different concentrations of test compounds for 48 h under standard culture conditions.
For harvesting the cells were centrifuged at 130×g for 4 min and washed once with PBS. Then 2×0.5 mL cell suspension was prepared for non-fixed cell measurement (0.5 mL for propidium iodide (PI) viability measurement and 0.5 mL for Nile red measurement).
The remaining cells were fixed with 3.7% formaldehyde for 30 min. After a further centrifugation step cells were resuspended with 1.3 mL Nile red working solution (1 μg/mL) and incubated for 5 min at rt. The cell suspension was then washed twice with 3 mL PBS and centrifuged with 130×g for 4 min. The supernatant was discarded and the cells were resuspended with 0.5 mL PBS and kept for flow cytometry measurement. For Nile red staining of the 0.5 mL non-fixed cell samples, 50 μL of a ready to use Nile red solution (10 μg/mL) were added per sample. Samples were kept on ice for 5 min. Thereafter, they were washed once with 4 mL PBS (4° C., 250×g for 8 min) and finally resuspended in 400 μL PBS and kept for flow cytometry measurement.
For the viability measurement, 12.5 μL of the ready to use PI solution (10 μg/mL) were added to the 0.5 mL non-fixed cell suspension. After 15 min of incubation on ice, the samples were measured by flow cytometry using a Coulter Epics XL/MCL flow cytometer.
The viability of the cells of each sample was determined by flow cytometry measurement of the PI content at channel 2 (568-590 nm). Cut-off gates for the fluorescence-dependent differentiation between live and dead cells were defined based on the analysis of cell culture medium control samples.
Only samples with a cell viability of >=90% relative to control samples were analyzed for phospholipidosis. For that, each Nile red sample (non-fixed and fixed samples) was measured by flow cytometry at channel 1 (504-541 nm) and channel 4 (660-680 nm).
For each channel, relative Nile red fluorescence intensity of a test sample was calculated compared to control samples and expressed as percentage of control fluorescence intensity. The assessment of the phospholipidogenic potential and the first effect concentration (FEC) of a test compound was done manually based on the fluorescence intensities at both wavelengths for the fixed cells as well as for the non-fixed cells.

Compound	IC50 [1]	IC50 at 48 h [2]
CC[C@@H]1C[C@]2(CC[C@H]1OC)Cc1ccc(C#N)cc1[C@]21N=C(N)N(CC2(F)CCOCC2)C1=O [Example 4]	0.28 nM	> 400 µM
CO[C@H]1CC[C@@]2(Cc3ccc(C#N)cc3[C@]23N=C(N)N(Cc2ccncn2)C3=O)C[C@@H]1C [Example 9]	1.9 nM	400 µM
CO[C@H]1[C@H](C)C[C@@]2(Cc3ccc(C#N)cc3[C@]23N=C(N)N(C2COC2)C3=O)C[C@@H]1C [Example 12]	1.1 nM	400 µM
CO[C@H]1[C@H](C)C[C@@]2(Cc3ccc(C#N)cc3[C@]23N=C(N)N(C[C@@H]2COCCO2)C3=O)C[C@@H]1C [Example 21]	0.48 nM	400 µM
CO[C@H]1[C@H](C)C[C@@]2(Cc3ccc(C#N)cc3[C@]23N=C(N)N(CC2(F)CCOCC2)C3=O)C[C@@H]1C [Example 23]	0.18 nM	> 200 µM
CC[C@@H]1C[C@@]2(Cc3ccc(C#N)cc3[C@]23N=C(N)N(CC(C)(C)F)C3=O)C[C@H](C)[C@H]1OC [Example 26]	0.2 nM	> 200 µM

More lines, main results first:

IC50 [1]	Compound	IC50 at 48 h [2]
1.02 nM	CO[C@H]1[C@H](C)C[C@@]2(Cc3ccc(C#N)cc3[C@]23N=C(N)N(C[C@@H]2CCO2)C3=O)C[C@@H]1C (stereo in doubt) [Example 18]	> 400 µM
0.29 nM	CC[C@@H]1C[C@]2(CC[C@H]1OC)Cc1ccc(C#N)cc1[C@]21N=C(N)N(CC2CCOCC2)C1=O [Example 2]	200 µM
0.49 nM	CO[C@H]1CC[C@@]2(Cc3ccc(C#N)cc3[C@]23N=C(N)N(CC2(C)COC2)C3=O)C[C@@H]1C [Example 8]	> 200 µM
0.92 nM	CO[C@H]1[C@H](C)C[C@@]2(Cc3ccc(C#N)cc3[C@]23N=C(N)N(CC2COC2)C3=O)C[C@@H]1C [Example 13]	200 µM
0.12 nM	CO[C@H]1[C@H](C)C[C@@]2(Cc3ccc(C#N)cc3[C@]23N=C(N)N(C[C@H]2CCCO2)C3=O)C[C@@H]1C [Example 14]	> 200 µM
0.11 nM	CO[C@H]1[C@H](C)C[C@@]2(Cc3ccc(C#N)cc3[C@]23N=C(N)N(C[C@@H]2CCCO2)C3=O)C[C@@H]1C [Example 15]	200 µM
0.89 nM	CO[C@H]1[C@H](C)C[C@@]2(Cc3ccc(C#N)cc3[C@]23N=C(N)N(CC(C)(C)F)C3=O)C[C@@H]1C [Example 17]	> 200 µM
0.26 nM	CO[C@H]1[C@H](C)C[C@@]2(Cc3ccc(C#N)cc3[C@]23N=C(N)N(C[C@H]2COCCO2)C3=O)C[C@@H]1C [Example 22]	> 400 µM
